Consider five molecules from patent US8906826B2, “Herbicidal compositions comprising 4-amino-3-chloro-5-fluoro-6-(4-chloro-2-fluoro-3-methoxyphenyl) pyridine-2-carboxylic acid or a derivative thereof and imidazolinones” (Dow AgroSciences, LLC, priority 2012, dated 2014).

Each structure is given as a SMILES string.

One test concerns CYPES. Nature of the test: Postemergence foliar-applied, direct seeded rice weeds (Example I). Format: in vivo, Cyperus esculentus L. From the text: Seeds or nutlets of the desired test plant species were planted in a soil matrix prepared by mixing a loam or sandy loam soil (e.g., 28.6 percent silt, 18.8 percent clay, and 52.6 percent sand, with a pH of about 5.8 and an organic matter content of about 1.8 percent) and calcareous grit in an 80 to 20 ratio. The soil matrix was contained in plastic pots with a volume of 1 quart and a surface area of 83.6 cm^2. When required to ensure good germination and healthy plants, a fungicide treatment and/or other chemical or physical treatment was applied. The plants were grown for 8-22 days in a greenhouse with an approximate 14 h photoperiod which was maintained at about 29° C. during the day and 26° C. during the night. Nutrients (Peters Excel® 15-5-15 5-Ca 2-Mg and iron chelate) were applied in the irrigation solution as needed and water was added on a regular basis. Supplemental lighting was provided with overhead metal halide 1000-Watt lamps as necessary. The plants were employed for testing when they reached the first through fourth true leaf stage.
Treatments consisted of the acid or esters of 4-amino-3-chloro-5-fluoro-6-(4-chloro-2-fluoro-3-methoxy-phenyl)pyridine-2-carboxylic acid (Compound A), each formulated as an SC (suspension concentrate), and various herbicidal components alone and in combination. Forms of compound A were applied on an acid equivalent basis.
Other herbicidal components were applied on an acid equivalent basis and include acetolactate synthase (ALS)-inhibiting herbicides (imidazolinone chemical class) imazethapyr ammonium salt formulated as Newpath®, imazamox ammonium salt formulated as Beyond®, imazapic ammonium salt formulated as Plateau®, imazapyr isopropylamine salt formulated as Arsenal®, imazamethabenz-methyl (technical material) and imazaquin isopropylamine salt formulated as Scepter®/Imagine®.
Treatment requirements were calculated based upon the rates being tested, the concentration of active ingredient or acid equivalent in the formulation, and a 12 mL application volume at a rate of 187 L/ha.
For treatments comprised of formulated compounds, measured amounts of compounds were placed individually in 25 mL glass vials and diluted in a volume of 1.25% (v/v) Agri-Dex® crop oil concentrated to obtain 12× stock solutions. […] Application solutions were prepared by adding an appropriate amount of each stock solution (e.g., 1 mL) and diluted to the appropriate final concentrations with the addition of 10 mL of an aqueous mixture of 1.25% (v/v) crop oil concentrate so that the final spray solutions contained 1.25+/−0.05% (v/v) crop oil concentrate.
For treatments comprised of technical compounds, weighed amounts can be placed individually in 25 mL glass vials and dissolved in a volume of 97:3 v/v acetone/DMSO to obtain 12× stock solutions. […] Application solutions can be prepared by adding an appropriate amount of each stock solution (e.g., 1 mL) and diluted to the appropriate final concentrations with the addition of 10 mL of an aqueous mixture of 1.5% (v/v) crop oil concentrate so that the final spray solutions contain 1.25% (v/v) crop oil concentrate. When technical materials are used, the concentrated stock solutions can be added to the spray solutions so that the final acetone and DMSO concentrations of the application solutions are 16.2% and 0.5%, respectively.
For treatments comprised of formulated and technical compounds, weighed amounts of the technical materials were placed individually in 25 mL glass vials and dissolved in a volume of 97:3 v/v acetone/DMSO to obtain 12× stock solutions, and measured amounts of the formulated compounds were placed individually in 25 mL glass vials and diluted in a volume of 1.5% (v/v) crop oil concentrate or water to obtain 12× stock solutions. […]

In the next test the test system is ECHCG. Description: In-water applied, transplanted paddy rice weeds (Example II). Format: in vivo, Echinochloa crusgalli (L.) Beauv. The procedure:
Weed seeds or nutlets of the desired test plant species were planted in puddled soil (mud) prepared by mixing a shredded, non-sterilized mineral soil (50.5 percent silt, 25.5 percent clay, and 24 percent sand, with a pH of about 7.6 and an organic matter content of about 2.9 percent) and water at a 1:1 volumetric ratio. The prepared mud was dispensed in 365 mL aliquots into 16-ounce (oz.) non-perforated plastic pots with a surface area of 86.59 square centimeters (cm^2) leaving a headspace of 3 centimeters (cm) in each pot. Mud was allowed to dry overnight prior to planting or transplanting. Rice seeds were planted in Sun Gro MetroMix® 306 planting mixture, which typically has a pH of about 6.0 to about 6.8 and an organic matter content of about 30 percent, in plastic plug trays. Seedlings at the second or third leaf stage of growth were transplanted into 860 mL of mud contained in 32-oz. non-perforated plastic pots with a surface area of 86.59 cm^2 4 days prior to herbicide application. The paddy was created by filling the headspace of the pots with 2.5 to 3 cm of water. When required to ensure good germination and healthy plants, a fungicide treatment and/or other chemical or physical treatment was applied. The plants were grown for 4-22 days in a greenhouse with an approximate 14 h photoperiod which was maintained at about 29° C. during the day and about 26° C. during the night. Nutrients were added as Osmocote® (19:6:12, N:P:K+minor nutrients) at 2 g per 16-oz. pot and 4 g per 32-oz. pot. Water was added on a regular basis to maintain the paddy flood, and supplemental lighting was provided with overhead metal halide 1000-Watt lamps as necessary. The plants were employed for testing when they reached the first through fourth true leaf stage.
Treatments consisted of the acid or esters of 4-amino-3-chloro-5-fluoro-6-(4-chloro-2-fluoro-3-methoxy-phenyl)pyridine-2-carboxylic acid (compound A) each formulated as an SC and various herbicidal components alone and in combination. Forms of compound A were applied on an acid equivalent basis.
Other herbicidal components were applied on an acid equivalent basis and included the acetolactate synthase (ALS)-inhibiting imidazolinone herbicides imazethapyr ammonium salt formulated as Newpath®, imazamox ammonium salt formulated as Beyond®, imazapic ammonium salt formulated as Plateau®, imazapyr isopropylamine salt formulated as Arsenal®, imazamethabenz-methyl (technical material), and imazaquin isopropylamine salt formulated as Scepter®.
Treatment requirements for each compound or herbicidal component were calculated based upon the rates being tested, the concentration of active ingredient or acid equivalent in the formulation, an application volume of 2 mL per component per pot, and an application area of 86.59 cm^2 per pot.
For formulated compounds, a measured amount was placed in an individual 100 or 200 mL glass vial and was dissolved in a volume of 1.25% (v/v) Agri-Dex® crop oil concentrate to obtain application solutions.
For technical grade compounds, a weighed amount was placed in an individual 100 to 200 mL glass vial and was dissolved in a volume of acetone to obtain concentrated stock solutions. […] The concentrated stock solutions obtained were diluted with an equivalent volume of an aqueous mixture containing 2.5% (v/v) crop oil concentrate so that the final application solutions contained 1.25% (v/v) crop oil concentrate.
Applications were made by injecting with a pipetter appropriate amounts of the application solutions, individually and sequentially, into the aqueous layer of the paddy. Control plants were treated in the same manner with the solvent blank. Applications were made so that all treated plant material received the same concentrations of acetone and crop oil concentrate.
The treated plants and control plants were placed in a greenhouse as described above and water was added as needed to maintain a paddy flood. […]

Setting [1] is: Compound A Benzyl Ester 17.5 gae/ha.
Where [2] appears, read: Imazethapyr ammonium 8.75 gae/ha.

For `COCc1cnc(C2=NC(C)(C(C)C)C(=O)N2)c(C(=O)O)c1.N` (racemic) [Imazamox ammonium, ammonium (±)-2-[4,5-dihydro-4-methyl-4-(1-methylethyl)-5-oxo-1H-imidazol-2-yl]-5-(methoxymethyl)-3-pyridinecarboxylate], the entries for the “Visual Weed Control (%) - 25 DAA CYPES Obs” value in the test on CYPES (Imazamox ammonium 5.6 gae/ha), in the test on CYPES (Imazamox ammonium 11.2 gae/ha) and with CYPES (Imazamox ammonium 22.4 gae/ha) were 0%, 0% and 20%, respectively. In addition, the results for the “Visual Weed Control (%) - 25 DAA ECHCG Obs” value in the test with ECHCG (Imazamox ammonium 5.6 gae/ha) and in the test on ECHCG (Imazamox ammonium 22.4 gae/ha) were 0% and 25%, respectively.

Regarding `COc1c(Cl)ccc(-c2nc(C(=O)OCc3ccccc3)c(Cl)c(N)c2F)c1F` [Compound A Benzyl Ester, benzyl ester of 4-amino-3-chloro-5-fluoro-6-(4-chloro-2-fluoro-3-methoxy-phenyl)pyridine-2-carboxylic acid], the “Visual Weed Control (%) - 25 DAA CYPES Obs” value with CYPES (Compound A Benzyl Ester 4.38 gae/ha) is 70%; in the test on CYPES (Compound A Benzyl Ester 8.75 gae/ha), 90%; with CYPES (setting [1]), 85%. Further, the “Visual Weed Control (%) - 25 DAA ECHCG Obs” value was found to be 10% in the test with ECHCG (setting [1]) and 45% with ECHCG (Compound A Benzyl Ester 35 gae/ha).

Turning to `COc1c(Cl)ccc(-c2nc(C(=O)O)c(Cl)c(N)c2F)c1F` [Compound A Acid, 4-amino-3-chloro-6-(4-chloro-2-fluoro-3-methoxyphenyl)-5-fluoropyridine-2-carboxylic acid], the “Visual Weed Control (%) - 25 DAA CYPES Obs” value in the test on CYPES (Compound A Acid 4.38 gae/ha) came to 50%. Also, the “Visual Weed Control (%) - 25 DAA ECHCG Obs” value in the test with ECHCG (Compound A Acid 8.75 gae/ha), in the test with ECHCG (Compound A Acid 17.5 gae/ha) and in the test with ECHCG (Compound A Acid 35 gae/ha) was 0% each time.

As for `CCc1cnc(C2=NC(C)(C(C)C)C(=O)N2)c(C(=O)O)c1.N` (racemic) [Imazethapyr ammonium, ammonium (±)-2-[4,5-dihydro-4-methyl-4-(1-methylethyl)-5-oxo-1H-imidazol-2-yl]-5-ethyl-3-pyridinecarboxylate], the “Visual Weed Control (%) - 25 DAA CYPES Obs” value in the test on CYPES (setting [2]) was determined as 0%. In addition, the “Visual Weed Control (%) - 25 DAA ECHCG Obs” value in the test on ECHCG (setting [2]) worked out at 0%; in the test with ECHCG (Imazethapyr ammonium 17.5 gae/ha), 0%; in the test with ECHCG (Imazethapyr ammonium 35 gae/ha) it was 50%.

With `Cc1cnc(C2=NC(C)(C(C)C)C(=O)N2)c(C(=O)O)c1.N` (racemic) [Imazapic ammonium, ammonium (±)-2-[4,5-dihydro-4-methyl-4-(1-methylethyl)-5-oxo-1H-imidazol-2-yl]-5-methyl-3-pyridinecarboxylic acid], the “Visual Weed Control (%) - 25 DAA ECHCG Obs” value with ECHCG (Imazapic ammonium 8.75 gae/ha) and in the test on ECHCG (Imazapic ammonium 17.5 gae/ha) was 20% each time.
